The values below are quoted from earlier work in US12133892B2, “Methods and compositions for increasing susceptibility to radiation treatment by inhibiting suppression of numerical chromosomal instability of cancer cells” (MEMORIAL SLOAN KETTERING CANCER CENTER, priority 2015, dated 2024).

What is called IC50 is the concentration that inhibits the measured activity by half. What is called Ki is a dissociation constant, usually derived from enzyme kinetics or from competition with a known ligand.

One data set addresses Bub1 (Homo sapiens, UniProt O43683).
In the next data set the test system is human glioblastoma. The settings on record: 100 mg/kg.
The subject of the next data set is Kif2b. Particulars: read-out: IC50 in inhibiting Kif2b.
For another data set, the target named is T1, MCAK (Homo sapiens, UniProt Q99661).
T1 sequence (Q99661 1-725): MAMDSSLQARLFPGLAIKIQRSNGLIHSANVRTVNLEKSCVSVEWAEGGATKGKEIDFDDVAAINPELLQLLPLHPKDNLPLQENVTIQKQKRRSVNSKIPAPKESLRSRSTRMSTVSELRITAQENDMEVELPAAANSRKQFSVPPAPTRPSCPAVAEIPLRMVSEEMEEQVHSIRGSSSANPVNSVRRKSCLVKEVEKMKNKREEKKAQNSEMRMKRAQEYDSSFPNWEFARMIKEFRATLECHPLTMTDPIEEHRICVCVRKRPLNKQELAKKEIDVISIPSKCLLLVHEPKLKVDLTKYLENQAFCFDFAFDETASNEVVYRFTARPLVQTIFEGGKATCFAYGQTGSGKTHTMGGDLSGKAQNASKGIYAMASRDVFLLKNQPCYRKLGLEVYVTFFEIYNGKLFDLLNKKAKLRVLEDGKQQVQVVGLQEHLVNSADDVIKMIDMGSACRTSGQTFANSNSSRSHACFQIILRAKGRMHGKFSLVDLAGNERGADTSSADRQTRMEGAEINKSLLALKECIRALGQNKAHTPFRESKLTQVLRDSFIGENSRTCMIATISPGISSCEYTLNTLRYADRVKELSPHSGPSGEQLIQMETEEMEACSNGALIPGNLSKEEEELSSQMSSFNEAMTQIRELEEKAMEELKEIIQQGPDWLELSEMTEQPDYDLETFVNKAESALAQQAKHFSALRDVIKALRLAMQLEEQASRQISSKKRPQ
The settings on record: read-out: IC50 in inhibiting MCAK.

Another data set deals with T2, PLK4 (Homo sapiens, UniProt O00444).
T2 sequence (O00444 1-970): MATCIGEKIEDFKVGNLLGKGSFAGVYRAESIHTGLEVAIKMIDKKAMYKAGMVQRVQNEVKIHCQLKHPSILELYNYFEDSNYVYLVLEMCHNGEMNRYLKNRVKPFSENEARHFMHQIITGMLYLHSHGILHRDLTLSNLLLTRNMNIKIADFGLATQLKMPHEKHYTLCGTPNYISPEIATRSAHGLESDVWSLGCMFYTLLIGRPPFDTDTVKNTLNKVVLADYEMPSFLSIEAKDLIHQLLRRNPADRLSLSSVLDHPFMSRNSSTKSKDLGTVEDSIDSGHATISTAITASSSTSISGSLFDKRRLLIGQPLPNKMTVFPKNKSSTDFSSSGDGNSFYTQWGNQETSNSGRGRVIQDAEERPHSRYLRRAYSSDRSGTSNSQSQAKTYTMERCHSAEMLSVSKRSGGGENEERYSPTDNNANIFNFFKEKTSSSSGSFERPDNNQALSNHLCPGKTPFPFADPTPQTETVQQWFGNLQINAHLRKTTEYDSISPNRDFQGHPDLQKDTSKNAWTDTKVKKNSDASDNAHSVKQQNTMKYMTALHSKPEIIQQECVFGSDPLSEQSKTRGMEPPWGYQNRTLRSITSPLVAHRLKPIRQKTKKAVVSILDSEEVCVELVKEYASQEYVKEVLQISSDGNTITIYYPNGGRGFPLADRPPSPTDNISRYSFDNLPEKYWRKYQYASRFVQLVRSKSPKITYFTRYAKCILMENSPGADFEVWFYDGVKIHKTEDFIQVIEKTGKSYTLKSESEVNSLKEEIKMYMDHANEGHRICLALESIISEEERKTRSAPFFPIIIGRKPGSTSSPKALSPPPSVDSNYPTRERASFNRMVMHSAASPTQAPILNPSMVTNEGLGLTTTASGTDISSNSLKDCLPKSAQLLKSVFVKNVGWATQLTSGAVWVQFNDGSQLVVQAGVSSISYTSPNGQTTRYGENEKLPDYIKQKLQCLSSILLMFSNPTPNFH
Particulars: in vitro; read-out: inhibition constant (Ki).

For data set [1] the following is noted: mice, 7 days, 7.5, 22.5, 75.0 mg/kg twice a day oral.
Data set [2] relates to triple negative breast cancer, colon cancer and liver cancer. Particulars: animal models of triple negative breast cancer.
In the next data set the test system is breast cancer model. Particulars: mice, twice a day for 28 days, orally 10, 25, 50 mg/kg.

Chain of Bub1 (O43683 whole entry, species assumed): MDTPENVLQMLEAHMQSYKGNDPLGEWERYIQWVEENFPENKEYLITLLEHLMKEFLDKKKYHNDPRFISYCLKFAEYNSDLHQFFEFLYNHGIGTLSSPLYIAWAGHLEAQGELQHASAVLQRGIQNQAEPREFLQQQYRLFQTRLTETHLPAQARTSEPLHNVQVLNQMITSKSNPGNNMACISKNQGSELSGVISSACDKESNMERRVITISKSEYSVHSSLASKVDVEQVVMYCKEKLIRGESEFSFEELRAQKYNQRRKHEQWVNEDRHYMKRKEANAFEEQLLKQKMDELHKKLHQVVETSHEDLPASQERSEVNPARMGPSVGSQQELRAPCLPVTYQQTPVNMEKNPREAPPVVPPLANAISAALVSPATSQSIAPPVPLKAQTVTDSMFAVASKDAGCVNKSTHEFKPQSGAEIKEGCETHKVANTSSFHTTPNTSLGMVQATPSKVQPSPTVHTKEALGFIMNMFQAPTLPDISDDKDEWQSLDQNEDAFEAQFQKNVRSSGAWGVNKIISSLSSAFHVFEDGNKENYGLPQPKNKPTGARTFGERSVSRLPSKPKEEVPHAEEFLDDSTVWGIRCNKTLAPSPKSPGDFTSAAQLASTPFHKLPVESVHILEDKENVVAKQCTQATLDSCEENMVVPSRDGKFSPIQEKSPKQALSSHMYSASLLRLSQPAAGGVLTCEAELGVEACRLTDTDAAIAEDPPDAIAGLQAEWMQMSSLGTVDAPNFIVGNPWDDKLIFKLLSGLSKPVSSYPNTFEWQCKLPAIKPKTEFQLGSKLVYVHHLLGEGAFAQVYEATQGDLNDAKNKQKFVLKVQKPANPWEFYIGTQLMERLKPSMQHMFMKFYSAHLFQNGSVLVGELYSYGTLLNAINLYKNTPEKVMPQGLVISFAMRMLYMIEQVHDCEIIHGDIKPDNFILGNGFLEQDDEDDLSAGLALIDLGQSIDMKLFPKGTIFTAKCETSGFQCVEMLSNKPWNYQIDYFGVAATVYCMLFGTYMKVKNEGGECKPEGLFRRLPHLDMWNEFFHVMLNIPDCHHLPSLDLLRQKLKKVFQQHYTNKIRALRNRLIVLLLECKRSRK

Regarding `CC(C)(C)n1nc(Cc2ccccc2O)c2c(N)ncnc21` [2OH-BNPP1], the IC50 on Bub1 was about 250 nM.

Consider `CCc1cccc(CC)c1NC(=O)c1nn(C)c2c1CCc1cnc(Nc3ccc(C(=O)NC4CCN(C)CC4)cc3OC(F)(F)F)nc1-2` [NMS-P715], for which the “radiosensitization of human glioblastoma” value in the data set with human glioblastoma is listed as “enhances radiosensitization of human glioblastoma”.

`COc1cc2c(cc1F)C(c1ccccc1Cl)=Nc1c(n[nH]c1C)N2` [R1530]: the “expression of mitotic checkpoint kinase BubR1” value in the data set with BubR1 is “downregulates”.

In the case of `CC1=C(C(=O)OC(C)C)C(c2ccc(Cl)cc2)n2c(s/c(=C\c3ccc(OCC(=O)O)cc3)c2=O)=N1` (stereo not drawn) [DHTP, (Z)-2-(4-((5-(4-chlorophenyl)-6-(isopropoxycarbonyl)-7-methyl-3-oxo-3,5-dihydro-2H-thiazolo[3,2-a]pyrimidin-2-ylidene)methyl)phenoxy)acetic acid], the values for the IC50 in the data set on Kif2b and at MCAK were 1200 nM and 4600 nM, respectively.

For `COc1c(Nc2cc(C)[nH]n2)nc(Sc2ccc(S(=O)(=O)Cc3cccc([N+](=O)[O-])c3F)cc2F)nc1N1CCCCC1` [centrinone-B], the “centrosome depletion at concentration” value in the data set on centrosome was 500 nM. Further, at PLK4, the Ki was 0.6 nM.

Turning to `COc1ccc(Oc2cc(C)c(-c3csc(NC(=O)c4ccncc4)n3)c(C)c2)cc1` [TAI-1], the “change in body weight, organ weight, and plasma indices” value in data set [1] is on record as “no significant change”. Also, in data set [2], the “oral efficacy in vivo” value is on record as “effective orally”.

As for `COc1ccc2c(c1)[C@]1(C[C@H]1c1ccc3c(/C=C/c4ccc(CN5C[C@@H](C)O[C@@H](C)C5)cc4)n[nH]c3c1)C(=O)N2` [CFI-400945], the chromosome missegregation rates entry with breast cancer cell lines was “increase chromosome missegregation rates”.

With `COCCOc1cnc(Sc2cc(C)c(-c3csc(NC(=O)c4ccncc4)n3)c(C)c2)cn1` [TAI-95], the “oral efficacy in vivo” value in the data set with breast cancer model is “excellent oral efficacy”.

For `COc1c(Nc2cc(C)[nH]n2)nc(Sc2ccc(S(=O)(=O)Cc3cccc([N+](=O)[O-])c3F)cc2F)nc1N1CCOCC1` [centrinone], in the data set with centrosome, the “centrosome depletion at concentration” value is 100 nM.
